Measurements reported in patent publication US20090246776A1, “Modulators of scarb-1 for treating acne or hyperseborrhea” (GALDERMA RESEARCH & DEVELOPMENT, priority 2006, published 2009).

System: SCARB-1 gene
Conditions: gonadectomized male mice, short-term treatment; effect not visible at 18, 24, 48 and 96 hours
Procedure: The expression of the genes was analyzed on an Affymetrix station (microfluidic model; hybridization oven; scanner; computer) following the protocols provided by the company. Briefly, the total RNA isolated from the tissues is transcribed to cDNA. From the double-stranded cDNA, a cRNA labeled with biotin is synthesized using T7 polymerase and a precursor NTP conjugated to biotin. The cRNAs are then fragmented to small sized fragments. All the molecular biology steps are checked using the Agilent “Lab on a chip” system in order to confirm the good efficiencies of the enzymatic reactions. The Affymetrix chip is hybridized with the biotinylated cRNA, rinsed and then fluorescence labeled using a fluorophore conjugated to streptavidin. After washings, the chip is scanned and the results are calculated using the MAS5 software provided by Affymetrix. An expression value is obtained for each gene as well as the indication of the significance of the value obtained.
B. Male mice were gonadectomized and treated with the vehicle or DHT. A kinetic study of the expression of the gene from 15 minutes to 96 hours was carried out. For this, the preputial glands were removed for a period ranging up to 4 days (androgenic treatment alone observation of a short-term kinetics), the RNA was isolated and the expression of the genes was analyzed by the Affymetrix technique (FIG. 2).

## C[C@]12CCC(=O)C[C@@H]1CC[C@@H]1[C@@H]2CC[C@]2(C)[C@@H](O)CC[C@@H]12 [DHT, Dihydrotestosterone]
  mRNA for SCARB-1 in the mouse preputial gland: not induced
